{
  "source": "patent US8395037B2",
  "about": "“Pharmaceutical compositions for treating/preventing motor organ diseases” (Mitsubishi Corporation, priority 2005, dated 2013)",
  "tested_on": "proteoglycan",
  "assay": "Cartilage matrix (proteoglycan) production in cultured chondrocytes (ELISA)",
  "type": "cell-based, human",
  "settings": "for Cartilage matrix (proteoglycan)-synthesizing ability: decreased by IL-1β or H2O2, 50 and 100 μM, 24 h",
  "method": "Chondrocytes isolated from human articular cartilage tissues were used for cultured cells. After obtaining informed consent, cartilage tissues were collected from surgically-removed tissues from eight osteoarthritis patients. The collected tissues were sliced and then treated in a liquid low-glucose Dulbecco's modified Eagle's medium (DMEM, manufactured by Gibco Co.) containing 1.5 mg/ml collagenase B at 37° C. overnight, to isolate chondrocytes for culture. The cells were normally cultured in a culture flask (culture area: 25 cm^2), and in a polystyrene culture dish (diameter: 6 cm) for use in the experiments. The cell culture was performed using a DMEM medium added with inactivated fetal bovine serum (FBS, manufactured by TRACE Co.) at 10% volume of the medium, and also 2 mM L-glutamine, 25 mM HEPES, and penicillin and streptomycin at 100 units/ml, in either a CO2 incubator (normoxic condition) which was set at 5% CO2+95% air, or a low oxygen chamber (hypoxic condition) which was set at 1% O2+5% CO2+94% N2, at 37° C. under saturated humidity.\nInfluence of hydroxylated 60 fullerene on cartilage matrix (proteoglycan or type II collagen) production ability decreased by cartilage catabolism inducers was analyzed using ELISA.\nChondrocytes that had been isolated and cultured by the above method (1) were subjected to two secondary cultures. Then, these cells in a subconfluent state were disseminated into a 24 well-culture plate at 1×10^5 cells/well. After incubation for 12 hours, the wells were washed with PBS and the medium was replaced with a fresh 10% FBS-containing DMEM. […]\nThe production quantities (concentrations) of the cartilage matrix (proteoglycan and type II collagen) in the culture supernatant were determined using ELISA kits (a kit for proteoglycan, manufactured by BioSource; and a kit for type II collagen, manufactured by Chondrex, Inc.), which is the standard technique currently known in the art.",
  "data": [
    {"substance": "hydroxylated C60 fullerene", "values": [
      {"measurement": "Cartilage matrix (proteoglycan)-synthesizing ability", "result": "restored cartilage matrix synthesis"},
      {"measurement": "Cartilage matrix (proteoglycan)-synthesizing ability", "setting": "listed as hydroxylated 60 fullerene", "result": "able to restore the decreased synthesizing ability"},
      {"measurement": "Proteoglycan synthesizing ability", "setting": "fullerene alone, versus control groups", "result": "increased as compared to that of the control groups"}
    ]}
  ]
}
